Here are results for 6 compounds from PubChem BioAssay AID2060509 (Molecular Pharmacology Branch, DTP, NCI, 2025).

The assay relates to 485176-168-R4-J1-PDC spheroids with HUVEC/MSC, viability. The experiment in a line: Anticancer human tumor 485176-168-R4-J1-PDC patient-derived pancreatic adenocarcinoma cell line growth inhibition [GQUAD]. Conditions: for viability, T/C: stronger effect = lower value. In short, it runs like this:
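Tumor cells were grown as complex spheroids with HUVEC endothelial cells and mesenchymal stem cells as stroma. G-quadruplex stabilizers were combined with targeted agents over half-log dilutions from near the clinical Cmax, or from 10 microM.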

Each structure is given as a SMILES string. “And” between values parts separate entries of the source, which are not always exact repeats. Identical values can stand only once.

The term viability, T/C denotes the ratio of treated to control. The IC50 is the concentration at which inhibition is half-maximal.
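Note: spheroids exposed to compounds for seven days before readout.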
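Throughout, for viability, T/C: percent viability relative to DMSO vehicle control wells as 100%.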

On to `CCc1c2c(nc3ccc(O)cc13)-c1cc3c(c(=O)n1C2)COC(=O)[C@]3(O)CC`, for which the viability, T/C is, setting by setting: (compound 0.000999 µM) 70.1% and 80.1% and 81.3%; (compound 0.00316 µM) 44.8% and 56.4% and 56%; (compound 0.00999 µM) 36% and 50.5% and 37.6%; (compound 0.0316 µM) 25.5% and 22.1% and 19.9%; (compound 0.0999 µM) 14.2% and 11.4% and 13.2%; (compound 0.316 µM) 5.64% and 4.31% and 3.94%. Further, for the setting “curve of compound”, the concentration for half-maximal inhibition (IC50) is 3.08 nM and 6.61 nM and 4.61 nM.

For the compound `Nc1ccn(C2OC(CO)C(O)C2(F)F)c(=O)n1` (configuration not stated) + CN(C)c1ccc(Nc2c3ccc(NC(=O)CCN4CCCC4)cc3nc3cc(NC(=O)CCN4CCCC4)ccc23)cc1, the IC50 (curve of first compound, second compound 0.0316 µM) stood at 49.1 nM; the IC50 (curve of first compound, second compound 0.1 µM) was 45.9 nM; the concentration for half-maximal inhibition (IC50) (curve of first compound, second compound 0.316 µM) was 43.6 nM; the IC50 (curve of first compound, second compound 1 µM) is 61.2 nM; the half-inhibitory concentration (IC50) (curve of first compound, second compound 3.16 µM) came out at 55.9 nM; the IC50 (curve of first compound, second compound 10 µM) is 41.3 nM. Also, the viability, T/C is, setting by setting: (second compound 0.0316 µM, first compound 0.0316 µM) 70.3%; (second compound 0.0316 µM, first compound 0.1 µM) 17.4%; (second compound 0.0316 µM, first compound 0.316 µM) 10.6%; (second compound 0.0316 µM, first compound 1 µM) 9.81%; (second compound 0.0316 µM, first compound 3.16 µM) 10.5%; (second compound 0.0316 µM, first compound 10 µM) 12.1%. Further, the viability, T/C by setting is: (second compound 0.1 µM, first compound 0.0316 µM) 63.7%; (second compound 0.1 µM, first compound 0.1 µM) 22%; (second compound 0.1 µM, first compound 0.316 µM) 10.5%; (second compound 0.1 µM, first compound 1 µM) 10.5%; (second compound 0.1 µM, first compound 3.16 µM) 10.3%; (second compound 0.1 µM, first compound 10 µM) 10.9%. The viability, T/C runs as follows: (second compound 0.316 µM, first compound 0.0316 µM) 62.1%; (second compound 0.316 µM, first compound 0.1 µM) 19.4%; (second compound 0.316 µM, first compound 0.316 µM) 10.4%; (second compound 0.316 µM, first compound 1 µM) 10.9%; (second compound 0.316 µM, first compound 3.16 µM) 10.5%; (second compound 0.316 µM, first compound 10 µM) 13.7%. The viability, T/C by setting is: (second compound 1 µM, first compound 0.0316 µM) 90.1%; (second compound 1 µM, first compound 0.1 µM) 20.1%; (second compound 1 µM, first compound 0.316 µM) 10.6%; (second compound 1 µM, first compound 1 µM) 12.5%; (second compound 1 µM, first compound 3.16 µM) 11.6%; (second compound 1 µM, first compound 10 µM) 9.65%. Besides, the viability, T/C is, setting by setting: (second compound 3.16 µM, first compound 0.0316 µM) 81.3%; (second compound 3.16 µM, first compound 0.1 µM) 18.1%; (second compound 3.16 µM, first compound 0.316 µM) 10.6%; (second compound 3.16 µM, first compound 1 µM) 11.5%; (second compound 3.16 µM, first compound 3.16 µM) 10%; (second compound 3.16 µM, first compound 10 µM) 11.9%. In addition, the viability, T/C is 58% (second compound 10 µM, first compound 0.0316 µM); 23.7% (second compound 10 µM, first compound 0.1 µM); 10.4% (second compound 10 µM, first compound 0.316 µM); 10.9% (second compound 10 µM, first compound 1 µM); 11.1% (second compound 10 µM, first compound 3.16 µM); 11.2% (second compound 10 µM, first compound 10 µM).

Regarding `C#Cc1c(F)ccc2cc(O)cc(-c3ncc4c(N5CC6CCC(C5)N6)nc(OCC56CCCN5CC(F)C6)nc4c3F)c12` (configuration not stated), the viability, T/C is, setting by setting: (compound 0.0316 µM) 95.2% and 109% and 105%; (compound 0.1 µM) 89% and 86.3% and 108%; (compound 0.316 µM) 92.7% and 88.4% and 95.7%; (compound 1 µM) 89.8% and 104% and 109%; (compound 3.16 µM) 104% and 96.4% and 97.2%; (compound 10 µM) 95.4% and 93.5% and 104%. In addition, where the note is “curve of compound”, the concentration for half-maximal inhibition (IC50) was greater than 10000 nM.

Regarding `Cn1ncnc1[C@H]1c2n[nH]c(=O)c3cc(F)cc(c23)N[C@@H]1c1ccc(F)cc1`, the viability, T/C is, setting by setting: (compound 0.000999 µM) 99.2% (2×) and 86.5%; (compound 0.00316 µM) 95.2% and 94% and 85.8%; (compound 0.00999 µM) 96.4% and 108% and 91.5%; (compound 0.0316 µM) 98.8% and 101% and 88.8%; (compound 0.0999 µM) 91.2% and 91.7% and 89.7%; (compound 0.316 µM) 75.9% and 98.5% and 85.9%. For the same compound, for the setting “curve of compound”, the IC50 was greater than 316 nM.

For the compound `Cc1[nH]c2ccccc2c1CCNCc1ccc(/C=C/C(=O)NO)cc1`, the viability, T/C is, setting by setting: (compound 0.000999 µM) 113% and 108% and 97.3%; (compound 0.00316 µM) 115% and 82.3% and 88%; (compound 0.00999 µM) 94.8% and 93.9% and 87%; (compound 0.0316 µM) 81.7% and 86% and 77.5%; (compound 0.0999 µM) 89.2% and 50.2% and 66%; (compound 0.316 µM) 14.2% and 10.4% and 16.8%. Moreover, the half-maximal inhibitory concentration (IC50) (curve of compound) is 168 nM and 102 nM and 138 nM.

As for `C=CCn1c(=O)c2cnc(Nc3ccc(N4CCN(C)CC4)cc3)nc2n1-c1cccc(C(C)(C)O)n1`, the viability, T/C is 101% and 96.5% and 125% (compound 0.0316 µM); 85.2% and 103% and 79.7% (compound 0.1 µM); 58% and 60.3% and 58.8% (compound 0.316 µM); 20.7% and 23% and 14.2% (compound 1 µM); 7.67% and 7.8% and 5.95% (compound 3.16 µM); 5.42% and 4.01% and 4.35% (compound 10 µM). The concentration for half-maximal inhibition (IC50) (curve of compound) was 387 nM and 453 nM and 300 nM.
